According to patent US20230365592A1 (Agios Pharmaceuticals, Inc., priority 2022, published 2023):

Target: T1, human PAH with the R408W mutation (Homo sapiens, UniProt P00439, R408W)
T1 construct: expressed in transfected cells
T1 sequence (P00439 1-452 R408W): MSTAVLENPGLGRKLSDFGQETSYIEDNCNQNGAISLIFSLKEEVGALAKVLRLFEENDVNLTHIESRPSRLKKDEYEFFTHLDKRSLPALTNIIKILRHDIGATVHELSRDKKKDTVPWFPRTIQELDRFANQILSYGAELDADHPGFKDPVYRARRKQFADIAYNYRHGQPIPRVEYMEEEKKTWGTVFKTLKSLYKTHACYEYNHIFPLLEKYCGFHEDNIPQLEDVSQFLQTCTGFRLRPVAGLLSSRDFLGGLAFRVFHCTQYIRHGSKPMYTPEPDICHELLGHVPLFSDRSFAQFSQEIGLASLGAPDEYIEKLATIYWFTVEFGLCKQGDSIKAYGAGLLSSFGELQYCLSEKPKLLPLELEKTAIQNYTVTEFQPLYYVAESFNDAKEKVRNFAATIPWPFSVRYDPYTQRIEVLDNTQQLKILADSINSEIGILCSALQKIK
Experiment: Cell Based Phenylalanine Flux Assay;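 note: after compound treatment, cells received sepiapterin plus isotope-labelled Phenylalanine for 4 hours, then labelled Tyrosine in the medium was quantified, 10-point 2-fold dilution series run in duplicate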
Settings: A375 cells expressing human PAH R408W; 24 hrs compound incubation; 13C-Tyrosine by LC-MS; average where tested multiple times; read-out: AC50

Structure (SMILES)	AC50 [nM]
Cn1ccc(-c2nnc(C(=O)N3CCc4[nH]cnc4[C@H]3c3cc4c(C5CC5)cccn4n3)o2)n1 [Example 1900, (S)-(4-(4-cyclopropylpyrazolo[1,5-a]pyridin-2-yl)-1,4,6,7-tetrahydro-5H-imidazo[4,5-c]pyridin-5-yl)(5-(1-methyl-1H-pyrazol-3-yl)-1,3,4-oxadiazol-2-yl)methanone]	< 500
O=C(c1nnc(-c2ccccn2)o1)N1CCc2[nH]cnc2[C@H]1c1cc2c(Br)cccn2n1 [Example 1911, (S)-(4-(4-bromopyrazolo[1,5-a]pyridin-2-yl)-1,4,6,7-tetrahydro-5H-imidazo[4,5-c]pyridin-5-yl)(5-(pyridin-2-yl)-1,3,4-oxadiazol-2-yl)methanone]	< 500
FC(F)(F)c1ccc(N2CCc3[nH]cnc3[C@H]2c2cc3ccccn3n2)nc1 [Example 1914, (S)-4-(pyrazolo[1,5-a]pyridin-2-yl)-5-(5-(trifluoromethyl)pyridin-2-yl)-4,5,6,7-tetrahydro-1H-imidazo[4,5-c]pyridine]	< 500
FC(F)(F)c1ccc(N2CCc3[nH]cnc3[C@@H]2c2cc3ccccn3n2)nc1 [Example 1915, (R)-4-(pyrazolo[1,5-a]pyridin-2-yl)-5-(5-(trifluoromethyl)pyridin-2-yl)-4,5,6,7-tetrahydro-1H-imidazo[4,5-c]pyridine]	> 5000
FC(F)c1cccn2nc([C@@H]3c4nc[nH]c4CCN3c3ccc(C(F)(F)F)cn3)cc12 [Example 1916, (S)-4-(4-(difluoromethyl)pyrazolo[1,5-a]pyridin-2-yl)-5-(5-(trifluoromethyl)pyridin-2-yl)-4,5,6,7-tetrahydro-1H-imidazo[4,5-c]pyridine]	< 500
FC(F)c1cccn2nc([C@H]3c4nc[nH]c4CCN3c3ccc(C(F)(F)F)cn3)cc12 [Example 1917, (R)-4-(4-(difluoromethyl)pyrazolo[1,5-a]pyridin-2-yl)-5-(5-(trifluoromethyl)pyridin-2-yl)-4,5,6,7-tetrahydro-1H-imidazo[4,5-c]pyridine]	> 5000
Cc1cccn2nc([C@@H]3c4nc[nH]c4CCN3C(=O)c3cnc(C4CC4)o3)cc12 [Example 1918, (S)-(2-cyclopropyloxazol-5-yl)(4-(4-methylpyrazolo[1,5-a]pyridin-2-yl)-1,4,6,7-tetrahydro-5H-imidazo[4,5-c]pyridin-5-yl)methanone]	500 to 1000
O=C(c1nnc(-c2cnn(C(F)(F)F)c2)o1)N1CCc2[nH]cnc2[C@H]1c1cc2c(C3CC3)cccn2n1 [Example 1928, (S)-(4-(4-cyclopropylpyrazolo[1,5-a]pyridin-2-yl)-1,4,6,7-tetrahydro-5H-imidazo[4,5-c]pyridin-5-yl)(5-(1-(trifluoromethyl)-1H-pyrazol-4-yl)-1,3,4-oxadiazol-2-yl)methanone]	500 to 1000
O=C(c1nnc(-c2ccn(C(F)F)n2)o1)N1CCc2[nH]cnc2[C@H]1c1cc2c(C3CC3)cccn2n1 [Example 1930, (S)-(4-(4-cyclopropylpyrazolo[1,5-a]pyridin-2-yl)-1,4,6,7-tetrahydro-5H-imidazo[4,5-c]pyridin-5-yl)(5-(1-(difluoromethyl)-1H-pyrazol-3-yl)-1,3,4-oxadiazol-2-yl)methanone]	< 500
O=C(c1nnc(-c2ccn(C(F)F)n2)o1)N1CCc2[nH]cnc2[C@@H]1c1cc2c(C3CC3)cccn2n1 [Example 1931, (R)-(4-(4-cyclopropylpyrazolo[1,5-a]pyridin-2-yl)-1,4,6,7-tetrahydro-5H-imidazo[4,5-c]pyridin-5-yl)(5-(1-(difluoromethyl)-1H-pyrazol-3-yl)-1,3,4-oxadiazol-2-yl)methanone]	> 5000
Cc1cc(-c2nnc(C(=O)N3CCc4[nH]cnc4[C@@H]3c3cc4c(C5CC5)cccn4n3)o2)nn1C [Example 1932, (R)-(4-(4-cyclopropylpyrazolo[1,5-a]pyridin-2-yl)-1,4,6,7-tetrahydro-5H-imidazo[4,5-c]pyridin-5-yl)(5-(1,5-dimethyl-1H-pyrazol-3-yl)-1,3,4-oxadiazol-2-yl)methanone]	> 5000

Further lines, results first:

AC50 [nM]	Structure (SMILES)
< 500	CC(C)c1cccn2nc([C@@H]3c4nc[nH]c4CCN3C(=O)c3nnc(C(C)(C)C)o3)cc12 [Example 1902, (S)-(5-(tert-butyl)-1,3,4-oxadiazol-2-yl)(4-(4-isopropylpyrazolo[1,5-a]pyridin-2-yl)-1,4,6,7-tetrahydro-5H-imidazo[4,5-c]pyridin-5-yl)methanone]
> 5000	CC(C)c1cccn2nc([C@H]3c4nc[nH]c4CCN3C(=O)c3nnc(-c4ccccn4)o3)cc12 [Example 1904, (R)-(4-(4-isopropylpyrazolo[1,5-a]pyridin-2-yl)-1,4,6,7-tetrahydro-5H-imidazo[4,5-c]pyridin-5-yl)(5-(pyridin-2-yl)-1,3,4-oxadiazol-2-yl)methanone]
< 500	CC(C)c1cccn2nc([C@@H]3c4nc[nH]c4CCN3C(=O)c3nnc(-c4ccccn4)o3)cc12 [Example 1905, (S)-(4-(4-isopropylpyrazolo[1,5-a]pyridin-2-yl)-1,4,6,7-tetrahydro-5H-imidazo[4,5-c]pyridin-5-yl)(5-(pyridin-2-yl)-1,3,4-oxadiazol-2-yl)methanone]
> 5000	CC(C)c1cccn2nc([C@H]3c4nc[nH]c4CCN3C(=O)c3nnc(-c4ncccc4F)o3)cc12 [Example 1907, (R)-(5-(3-fluoropyridin-2-yl)-1,3,4-oxadiazol-2-yl)(4-(4-isopropylpyrazolo[1,5-a]pyridin-2-yl)-1,4,6,7-tetrahydro-5H-imidazo[4,5-c]pyridin-5-yl)methanone]
< 500	O=C(c1nnc(C2CC2)o1)N1CCc2[nH]cnc2[C@H]1c1cc2c(Br)cccn2n1 [Example 1908, (S)-(4-(4-bromopyrazolo[1,5-a]pyridin-2-yl)-1,4,6,7-tetrahydro-5H-imidazo[4,5-c]pyridin-5-yl)(5-cyclopropyl-1,3,4-oxadiazol-2-yl)methanone]
< 500	CCc1cccn2nc([C@@H]3c4nc[nH]c4CCN3C(=O)c3nnc(C(C)(C)F)o3)cc12 [Example 1922, (S)-(4-(4-ethylpyrazolo[1,5-a]pyridin-2-yl)-1,4,6,7-tetrahydro-5H-imidazo[4,5-c]pyridin-5-yl)(5-(2-fluoropropan-2-yl)-1,3,4-oxadiazol-2-yl)methanone]
> 5000	CCc1cccn2nc([C@H]3c4nc[nH]c4CCN3C(=O)c3nnc(-c4cnn(C)c4)o3)cc12 [Example 1925, (R)-(4-(4-ethylpyrazolo[1,5-a]pyridin-2-yl)-1,4,6,7-tetrahydro-5H-imidazo[4,5-c]pyridin-5-yl)(5-(1-methyl-1H-pyrazol-4-yl)-1,3,4-oxadiazol-2-yl)methanone]
> 5000	CCc1cccn2nc([C@H]3c4nc[nH]c4CCN3C(=O)c3nnc(-c4ccn(C)n4)o3)cc12 [Example 1926, (R)-(4-(4-ethylpyrazolo[1,5-a]pyridin-2-yl)-1,4,6,7-tetrahydro-5H-imidazo[4,5-c]pyridin-5-yl)(5-(1-methyl-1H-pyrazol-3-yl)-1,3,4-oxadiazol-2-yl)methanone]
500 to 1000	Cc1cc(-c2nnc(C(=O)N3CCc4[nH]cnc4[C@H]3c3cc4c(C5CC5)cccn4n3)o2)nn1C [Example 1933, (S)-(4-(4-cyclopropylpyrazolo[1,5-a]pyridin-2-yl)-1,4,6,7-tetrahydro-5H-imidazo[4,5-c]pyridin-5-yl)(5-(1,5-dimethyl-1H-pyrazol-3-yl)-1,3,4-oxadiazol-2-yl)methanone]
